From ChEMBL document CHEMBL3865826, “Synthesis and biological evaluation of a series of non-hemiacetal ester derivatives of artemisinin” (Eur J Med Chem, 2016)

Legend:
CHO [1] = experiment: Selectivity index, ratio of IC50 for CHO cells to IC50 for human UACC62 cells; assay type: functional
[2] = Cytotoxicity against human WI38 cells assessed as reduction in cell viability measured after 48 hrs by SRB assay; assay type: toxicity, cell-based, WI-38
[3] = Selectivity index, ratio of IC50 for human TK10 cells to IC50 for chloroquine-resistant asexual erythrocyte stage form Plasmodium falciparum Dd2; assay type: functional, TK-10
[4] = Growth inhibition of human UACC62 cells measured after 24 hrs by SRB assay; assay type: functional, cell-based; details: UACC-62, 24 h
[5] = Growth inhibition of human TK10 cells measured after 24 hrs by SRB assay; assay type: functional, cell-based; details: TK-10, 24 h
MCF7 = experiment: Selectivity index, ratio of IC50 for human WI38 cells to IC50 for human MCF7 cells; assay type: functional
[6] = Selectivity index, ratio of IC50 for human MCF7 cells to IC50 for chloroquine-resistant asexual erythrocyte stage form Plasmodium falciparum Dd2; assay type: functional
[7] = Thermal stability of the compound assessed as melting point by thermogravimetric analysis; assay type: physicochemical
[8] = Selectivity index, ratio of IC50 for human WI38 cells to IC50 for chloroquine-sensitive asexual erythrocyte stage form Plasmodium falciparum NF54; assay type: toxicity, cell-based, WI-38; details: read-out: Ratio IC50
Plasmodium falciparum [9] = experiment: Antiplasmodial activity against chloroquine-resistant asexual erythrocyte stage form Plasmodium falciparum Dd2 measured after 48 hrs by pLDH assay; assay type: functional; details: Dd2, 48 h
[10] = Selectivity index, ratio of IC50 for human UACC62 cells to IC50 for chloroquine-resistant asexual erythrocyte stage form Plasmodium falciparum Dd2; assay type: functional, UACC-62
WI-38 = experiment: Selectivity index, ratio of IC50 for human WI38 cells to IC50 for human TK10 cells; assay type: functional
CHO [11] = experiment: Selectivity index, ratio of IC50 for CHO cells to IC50 for human TK10 cells; assay type: functional
[12] = Growth inhibition of human MCF7 cells measured after 24 hrs by SRB assay; assay type: functional, cell-based; details: MCF7, 24 h
[13] = Selectivity index, ratio of IC50 for CHO cells to IC50 for chloroquine-sensitive asexual erythrocyte stage form Plasmodium falciparum NF54; assay type: toxicity, cell-based; details: hamster, read-out: Ratio IC50
[14] = Resistance index, ratio of IC50 for chloroquine-resistant asexual erythrocyte stage form Plasmodium falciparum Dd2 to IC50 for chloroquine-sensitive asexual erythrocyte stage form Plasmodium falciparum NF54; assay type: functional
CHO [15] = experiment: Selectivity index, ratio of IC50 for CHO cells to IC50 for human MCF7 cells; assay type: functional
UACC-62 = experiment: Selectivity index, ratio of IC50 for human WI38 cells to IC50 for human UACC62 cells; assay type: functional
[16] = Cytotoxicity against CHO cells assessed as reduction in cell viability measured after 48 hrs by MTT assay; assay type: toxicity, cell-based, Cricetulus griseus; details: Chinese hamster
Plasmodium falciparum [17] = experiment: Antiplasmodial activity against chloroquine-sensitive asexual erythrocyte stage form Plasmodium falciparum NF54 measured after 48 hrs by pLDH assay; assay type: functional; details: NF54, 48 h
[18] = Thermal stability of the compound assessed as onset of decomposition temperature by thermogravimetric analysis; assay type: physicochemical
[19] = Thermal stability of the compound assessed as transition temperature by differential scanning calorimetry; assay type: physicochemical

SMILES	IC50 at 48 h [2] [µM]	IC50 [4] [µM]	IC50 [5] [µM]	Ratio IC50 (MCF7)	Ratio IC50 [6]	Tm [7] [°C]	selectivity ratio [8]	IC50 (Plasmodium falciparum [9]) [nM]	Ratio IC50 [10]	IC50 [12] [µM]	selectivity ratio [13]	Ratio IC50 [14]	Ratio IC50 (CHO [15])	IC50 at 48 h [16] [µM]	IC50 (Plasmodium falciparum [17]) [nM]	further results
C[C@@H]1CC[C@H]2C(C)(COC(=O)c3ccc(F)cc3)O[C@@H]3O[C@]4(C)CC[C@@H]1[C@]32OO4 (stereo not given in full)	> 100	12	41.7	>40	385	171.9	> 27000	4.4	1846	2.5	27000	1.2	>40	> 100	3.7	Ratio IC50 (CHO [1]): >8; Ratio IC50 [3]: 6415; Ratio IC50 (WI-38): >2; Ratio IC50 (CHO [11]): >2; Ratio IC50 (UACC-62): >8
CCCC(=O)OCC1(C)O[C@@H]2O[C@]3(C)CC[C@H]4[C@H](C)CC[C@@H]1[C@@]24OO3 (stereo not given in full)	> 100	> 100	> 100	>2	7768	–	> 5920	6.9	–	53.6	> 5920	0.4	>2	> 100	16.9	–
C[C@@H]1CC[C@H]2C(C)(COC(=O)c3cc4ccccc4o3)O[C@@H]3O[C@]4(C)CC[C@@H]1[C@]32OO4 (stereo not given in full)	> 100	78.7	> 100	>6	2563	172.1	> 6850	7.1	11085	18.2	> 6850	0.5	>6	> 100	14.6	–
C[C@@H]1CC[C@H]2C(C)(CO)O[C@@H]3O[C@]4(C)CC[C@@H]1[C@]32OO4 (stereo not given in full)	> 100	> 100	> 100	–	–	160.9	> 24400	7.4	–	> 100	> 24400	1.8	–	> 100	4.1	T [18]: 144 °C
Cc1ccsc1C(=O)OCC1(C)O[C@@H]2O[C@]3(C)CC[C@H]4[C@H](C)CC[C@@H]1[C@@]24OO3 (stereo not given in full)	> 100	13.9	> 100	>15	958	–	> 13900	7.1	1958	6.8	> 13900	1	>15	> 100	7.2	–
C[C@@H]1CC[C@H]2C(C)(C=O)O[C@@H]3O[C@]4(C)CC[C@@H]1[C@]32OO4 (stereo not given in full)	> 100	7.8	36.6	6	1560	174.9	> 14500	4.1	1900	6.4	> 14500	0.6	–	> 100	6.9	Ratio IC50 [3]: 8927; Ratio IC50 (WI-38): >3; Ratio IC50 (UACC-62): >13
CC(=O)Oc1ccccc1C(=O)OCC1(C)O[C@@H]2O[C@]3(C)CC[C@H]4[C@H](C)CC[C@@H]1[C@@]24OO3 (stereo not given in full)	> 100	19	> 100	>10	2442	175.2	> 37000	4.3	4419	10.5	> 37000	1.6	>10	> 100	2.7	–
C[C@@H]1CC[C@H]2C(C)(COC(=O)c3ccc([N+](=O)[O-])cc3)O[C@@H]3O[C@]4(C)CC[C@@H]1[C@]32OO4 (stereo not given in full)	> 100	> 100	56	>2	–	172.4	> 14900	2.6	17077	44.4	> 14900	0.4	>2	> 100	6.7	T [19]: 110 °C; Ratio IC50 [3]: 21539; Ratio IC50 (WI-38): >2; Ratio IC50 (CHO [11]): >2; T [18]: 220 °C
CCCCCC(=O)OCC1(C)O[C@@H]2O[C@]3(C)CC[C@H]4[C@H](C)CC[C@@H]1[C@@]24OO3 (stereo not given in full)	> 100	> 100	> 100	>2	1100	–	> 1660	43.2	–	47.5	> 1660	0.7	>2	> 100	60.1	–
C[C@@H]1CC[C@H]2C(C)(COC(=O)c3ccc(-c4ccccc4)cc3)O[C@@H]3O[C@]4(C)CC[C@@H]1[C@]32OO4 (stereo not given in full)	> 100	12	41.7	>40	385	173.8	> 13700	6.5	1846	2.51	> 13700	0.9	>40	> 100	7.3	Ratio IC50 (CHO [1]): >8; Ratio IC50 [3]: 6415; Ratio IC50 (WI-38): >2; Ratio IC50 (CHO [11]): >2; Ratio IC50 (UACC-62): >8
C[C@@H]1CC[C@H]2C(C)(COC(=O)CCc3ccccc3)O[C@@H]3O[C@]4(C)CC[C@@H]1[C@]32OO4 (stereo not given in full)	> 100	69.3	> 100	>3	2974	–	> 13500	11.5	6026	34.2	> 13500	1.6	>3	> 100	7.4	Ratio IC50 (CHO [1]): >1.4; Ratio IC50 (UACC-62): >1.4
C[C@@H]1CC[C@H]2C(C)(COC(=O)c3ccco3)O[C@@H]3O[C@]4(C)CC[C@@H]1[C@]32OO4 (stereo not given in full)	> 100	> 100	> 100	–	–	177.3	> 10900	3.7	–	> 100	> 10900	0.4	–	> 100	9.2	–
C[C@@H]1CC[C@H]2C(C)(COC(=O)c3cccs3)O[C@@H]3O[C@]4(C)CC[C@@H]1[C@]32OO4 (stereo not given in full)	> 100	39.3	> 100	>2	7898	170.8	> 20800	5.9	6661	46.6	> 20800	1.2	>2	> 100	4.8	–
C=C1C(=O)O[C@@H]2C3O[C@]3(C)CC/C=C(\C)CC[C@@H]12 (stereo not given in full)	–	15	6.4	–	–	–	–	–	–	5.8	–	–	–	–	–	–
CO[C@H]1O[C@@H]2O[C@@]3(C)CC[C@H]4[C@H](C)CC[C@@H]([C@H]1C)[C@@]24OO3 [ARTEMETHER]	–	–	–	–	–	186	–	2.3	–	–	> 26300	0.6	–	> 100	3.8	–
C[C@H]1[C@@H](O)O[C@@H]2O[C@@]3(C)CC[C@H]4[C@H](C)CC[C@@H]1[C@@]24OO3 [ARTENIMOL]	–	–	–	–	–	160	–	1.2	–	–	> 45500	0.6	–	> 100	2.2	–
C[C@H]1[C@H](OC(=O)CCC(=O)O)O[C@@H]2O[C@@]3(C)CC[C@H]4[C@H](C)CC[C@@H]1[C@@]24OO3 [ARTESUNATE]	> 100	–	–	–	–	134.7	> 12500	7.5	–	–	> 12500	0.9	–	> 100	8	–
CC[C@H]1CN2CCc3cc(OC)c(OC)cc3[C@@H]2C[C@@H]1C[C@H]1NCCc2cc(OC)c(OC)cc21 [EMETINE]	0.05	–	–	–	–	–	–	–	–	–	–	–	–	0.29	–	–
